{"source": "paper PMC11217419", "about": "“TRP14 is the rate-limiting enzyme for intracellular cystine reduction and regulates proteome cysteinylation” (The EMBO Journal, 2024)", "biological_target": "T1, TXDC-17 (C. elegans TRP14) (Caenorhabditis elegans, UniProt Q9BL27)", "T1 construct": "recombinant, purified with the same methodologies as the human orthologue", "T1 sequence (Q9BL27 1-132)": "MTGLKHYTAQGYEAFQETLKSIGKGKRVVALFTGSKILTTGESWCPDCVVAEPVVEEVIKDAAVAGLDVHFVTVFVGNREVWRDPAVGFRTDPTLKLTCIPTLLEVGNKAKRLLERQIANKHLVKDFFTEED", "assay": "coupled cystine reduction assay with C. elegans TRXR-1", "format": "biochemical", "conditions": "with C. elegans TRXR-1 as reductase", "data": [{"smiles": "N[C@@H](CSSC[C@H](N)C(=O)O)C(=O)O", "note": "[cystine]", "values": [{"measurement": "coupled cystine reduction assay with C. elegans TRXR-1", "result": "TXDC-17, together with its native reductase, could efficiently reduce cystine in vitro"}]}]}
